{"source": "PubChem BioAssay AID1259409", "about": "(Chemical Carcinogenesis Research Information System (CCRIS), 2018)", "origin": "cited, not measured here", "test_system": "rodent chemically induced tumor inhibition, incidence and multiplicity", "assay": "CCRIS tumor inhibitor studies", "details": "Route [Inhibitor]: ORAL, Promoter: NONE USED"}
{"smiles": "CC1=C(/C=C/C(C)=C/C=C/C(C)=C/C(=O)Nc2ccc(O)cc2)C(C)(C)CCC1", "values": [{"measurement": "tumour outcome (control, treated, inhibition, significance)", "setting": "Carcinogen: METHYLNITROSOUREA, 684-93-5, Dose [Inhibitor]: 0, 782 MG/KG DIET IN VEHICLE 2 MO PRIOR TO CARCINOGEN DOSE AND CONTINUED UNTIL CARCINOGEN ADMINISTRATION (STUDY DURATION, Species: RAT, Strain/Sex: CD-1/FEMALE, Target Tissue: Type of Lesion: MAMMARY GLAND: BENIGN TUMOR, Dose [Carcinogen]: 50 MG/KG BW ONCE", "result": "10%, 14%, -40%, not calculated"}, {"measurement": "tumour outcome (control, treated, inhibition, significance)", "setting": "Carcinogen: N-BUTYL-N(4-HYDROXYBUTYL)NITROSAMINE, 3817-11-6, Dose [Inhibitor]: 0, 156 MG/KG DIET FOR 6 MO BEGINNING 1 WK PRIOR TO CARCINOGEN TREATMENT (STUDY DURATION: 6 MO), Species: MOUSE, Strain/Sex: BDF/MALE, Target Tissue: Type of Lesion: URINARY BLADDER: CARCINOMA, Dose [Carcinogen]: 7.5 MG IN 0.1 ML ETHANOL:WATER (20:80) 1/WK FOR 8 WK", "result": "27/70 (39%), 31/67 (46%), -18%, not calculated"}, {"measurement": "tumour outcome (control, treated, inhibition, significance)", "setting": "Carcinogen: N-BUTYL-N-(4-HYDROXYBUTYL)NITROSAMINE, 3817-11-6, Dose [Inhibitor]: 0, 156 MG/KG DIET BEGINNING 1 WK PRIOR TO CARCINOGEN TREATMENT AND CONTINUING FOR DURATION OF STUDY (STUDY DURATION: 180, Species: MOUSE, Strain/Sex: BDF/MALE, Target Tissue: Type of Lesion: BLADDER: CARCINOMA, Dose [Carcinogen]: 7.5 MG IN 0.1 ML OF ETHANOL:WATER (20:80) 1/WK FOR 8 WK", "result": "25/63 (40%), 27/70 (39%), 3%, not significant"}, {"measurement": "tumour outcome (control, treated, inhibition, significance)", "setting": "Carcinogen: N-BUTYL-N-(4-HYDROXYBUTYL)NITROSAMINE, 3817-11-6, Dose [Inhibitor]: 0, 313 MG/KG DIET BEGINNING 1 WK PRIOR TO CARCINOGEN TREATMENT AND CONTINUING FOR DURATION OF STUDY (STUDY DURATION: 180, Species: MOUSE, Strain/Sex: BDF/MALE, Target Tissue: Type of Lesion: BLADDER: CARCINOMA, Dose [Carcinogen]: 7.5 MG IN 0.1 ML OF ETHANOL:WATER (20:80) 1/WK FOR 8 WK", "result": "28/65 (43%), 20/67 (30%), 30%, not significant"}, {"measurement": "tumour outcome (control, treated, inhibition, significance)", "setting": "Carcinogen: N-BUTYL-N-(4-HYDROXYBUTYL)NITROSAMINE, 3817-11-6, Dose [Inhibitor]: 0, 313 MG/KG DIET FOR 6 MO BEGINNING 1 WK PRIOR TO CARCINOGEN TREATMENT (STUDY DURATION: 6 MO), Species: MOUSE, Strain/Sex: BDF/MALE, Target Tissue: Type of Lesion: URINARY BLADDER: CARCINOMA, Dose [Carcinogen]: 7.5 MG IN 0.1 ML ETHANOL:WATER (20:80) 1/WK FOR 8 WK", "result": "30/73 (41%), 28/67 (42%), -2%, not calculated"}, {"measurement": "tumour outcome (control, treated, inhibition, significance)", "setting": "Carcinogen: N-BUTYL-N-(4-HYDROXYBUTYL)NITROSAMINE, 3817-11-6, Dose [Inhibitor]: 1.5 MMOL/KG DIET DAILY FOR 153 D STARTING ONE WK AFTER THE FINAL CARCINOGEN DOSE (STUDY DURATION: 210 D), Species: MOUSE, Strain/Sex: BDF/MALE, Target Tissue: Type of Lesion: URINARY BLADDER: TRANSITIONAL CELL CARCINOMA, Dose [Carcinogen]: 7.5 MG 1/WK FOR 8 WK", "result": "35/99 (35%), 21/100 (21%), 40%, p<0.05"}, {"measurement": "tumour outcome (control, treated, inhibition, significance)", "setting": "Carcinogen: N-BUTYL-N-(4-HYDROXYBUTYL)NITROSAMINE, 3817-11-6, Dose [Inhibitor]: 1.5 MMOL/KG IN DIET FOR 153 D STARTING 1 WK AFTER LAST CARCINOGEN DOSE (STUDY DURATION: 210 D), Species: MOUSE, Strain/Sex: DBF1/MALE, Target Tissue: Type of Lesion: URINARY BLADDER: TRANSITIONAL CELL CARCINOMA, Dose [Carcinogen]: 7.5 MG 1/WK FOR 8 WK", "result": "35/99 (35%), 21/100 (21%), 40%, p<0.05"}, {"measurement": "tumour outcome (control, treated, inhibition, significance)", "setting": "Carcinogen: N-BUTYL-N-(4-HYDROXYBUTYL)NITROSAMINE, 3817-11-6, Dose [Inhibitor]: 391 MG/KG DIET STARTING 1 WK AFTER FINAL CARCINOGEN DOSE AND CONTINUING THROUGH END OF STUDY (STUDY DURATION: 205 D), Species: MOUSE, Strain/Sex: DBF1/MALE, Target Tissue: Type of Lesion: URINARY BLADDER: TRANSITIONAL CELL CARCINOMA, Dose [Carcinogen]: 7.5 MG 1/WK FOR 8 WK", "result": "19/50 (38%), 9/49 (18%), 53%, p<0.05"}, {"measurement": "tumour outcome (control, treated, inhibition, significance)", "setting": "Carcinogen: N-BUTYL-N-(4-HYDROXYBUTYL)NITROSAMINE, 3817-11-6, Dose [Inhibitor]: 391 MG/KG IN DIET BEGINNING 1 WK AFTER FINAL CARCINOGEN DOSE AND CONTINUING THROUGH END OF STUDY (STUDY DURATION: 205 D), Species: MOUSE, Strain/Sex: DBF1/MALE, Target Tissue: Type of Lesion: URINARY BLADDER: TRANSITIONAL CELL CARCINOMA, Dose [Carcinogen]: 7.5 MG 1/WK FOR 8 WK", "result": "19/50 (38%), 9/49 (18%), 53%, p<0.05"}, {"measurement": "tumour outcome (control, treated, inhibition, significance)", "setting": "Carcinogen: N-ETHYL-N-NITROSOUREA, 759-73-9, Dose [Inhibitor]: 0, 98 MG/KG DIET FOR DURATION OF STUDY BEGINNING POST CARCINOGEN DOSE (STUDY DURATION: 35 WK), Species: MOUSE, Strain/Sex: PIM/MALE, Target Tissue: Type of Lesion: LYMPHATIC SYSTEM: LYMPHOMA, Dose [Carcinogen]: 50 MG/KG BW ONCE", "result": "21/40 (53%), 13/30 (43%), 19%, not significant"}, {"measurement": "tumour outcome (control, treated, inhibition, significance)", "setting": "Carcinogen: N-ETHYL-N-NITROSOUREA, 759-73-9, Dose [Inhibitor]: 0, 196 MG/KG DIET FOR DURATION OF STUDY BEGINNING POST CARCINOGEN DOSE (STUDY DURATION: 35 WK), Species: MOUSE, Strain/Sex: PIM/MALE, Target Tissue: Type of Lesion: LYMPHATIC SYSTEM: LYMPHOMA, Dose [Carcinogen]: 50 MG/KG BW ONCE", "result": "21/40 (53%), 15/29 (52%), 2%, not significant"}, {"measurement": "tumour outcome (control, treated, inhibition, significance)", "setting": "Carcinogen: N-ETHYL-N-NITROSOUREA, 759-73-9, Dose [Inhibitor]: 0, 391 MG/KG DIET FOR DURATION OF STUDY BEGINNING POST CARCINOGEN DOSE (STUDY DURATION: 35 WK), Species: MOUSE, Strain/Sex: PIM/MALE, Target Tissue: Type of Lesion: LYMPHATIC SYSTEM: LYMPHOMA, Dose [Carcinogen]: 50 MG/KG BW ONCE", "result": "21/40 (53%), 16/40 (40%), 26%, not significant"}]}
